In US20240360101A1, “PHARMACEUTICAL SALTS OF A CHK-1 INHIBITOR” (SENTINEL ONCOLOGY LIMITED, priority 2021, published 2024):

What was measured:
MIA PaCa-2 cells = assay: Gemcitabine combination cell assay; format: cell-based
Procedure: Exponentially growing MIA PaCa-2 (ATCC CRL-1420) cells are treated with trypsin to remove cells from the plate surface. Approximately 10,000 cells/well are plated in 96 well plates in RPMI containing 10% fetal bovine serum, 1% sodium pyruvate and 1% L-GlutaMax. Cells are allowed to adhere to the plate surface overnight. Serial half-log dilutions of Chk1 inhibitor test compounds and gemcitabine are made with a final highest concentration of 3000 nM and 100 nM, respectively. Chk1 inhibitors and gemcitabine are combined so that each concentration of Chk1 inhibitor is added to each concentration of gemcitabine. Each drug is also tested as a single agent. Drugs are added to adherent cells (in duplicate) and incubated for 72h. At 72h the cells are treated with Promega Cell Titer Glo reagent for approximately 15 minutes. Luminescence (relative light units, RLU) is recorded using a BMG Polarstar Omega plate reader. The single agent concentration that results in a 50% reduction in total signal (IC50) is calculated using PRISM software and a four-parameter non-linear regression curve fit. For combination studies the RLUs are plotted using PRISM on an XY plot with the gemcitabine concentration on the X axis and RLU on the Y axis. The RLU for each concentration of Chk1 inhibitor is plotted as a function of gemcitabine concentration. The IC50 for gemcitabine alone and at each concentration of Chk1 is determined using a four-parameter non-linear regression curve fit. The approximate concentration of Chk1 inhibitor that results in a two and ten-fold reduction in the IC50 of gemcitabine alone is calculated as an indication of synergistic potency.

[1] = Solubility of the salts in biorelevant media; format: physicochemical; settings: 25° C., 24 h, HPLC; for solubility FaSSGF (pH 1.37): Fasted State Simulated Gastric Fluid; for solubility FaSSIF (pH 6.71): Fasted State Simulated Intestinal Fluid; for solubility FeSSIF (pH 5.14): Fed State Simulated Intestinal Fluid
Procedure: Biorelevant media (DI H2O, FeSSIF, FaSSIF and FaSSGF) (2 mL) was charged. Samples were left to equilibrate (25° C.) over 24 h. Solubility measurements were taken using HPLC (see Method 1 above).

[2] = Gravimetric vapour sorption (GVS); format: physicochemical; settings: for GVS weight loss, initial desorption cycle: from 50% RH to 0% RH; for GVS weight loss, initial desorption cycle / GVS water gain, subsequent sorption cycle: 25° C.; for GVS water gain, subsequent sorption cycle: up to 90% RH
Procedure: Sorption isotherms were obtained using a Hiden Isochema moisture sorption analyser (model IGAsorp), controlled by IGAsorp Systems Software V6.50.48. The sample was maintained at a constant temperature (25° C.) by the instrument controls. The humidity was controlled by mixing streams of dry and wet nitrogen, with a total flow of 250 ml·min−. The instrument was verified for relative humidity (RH) content by measuring three calibrated Rotronic salt solutions (10-50-88%). The weight change of the sample was monitored as a function of humidity by a microbalance (accuracy+/−0.005 mg). A defined amount of sample was placed in a tared mesh stainless steel basket under ambient conditions. A full experimental cycle typically consisted of three scans (sorption, desorption and sorption) at a constant temperature (25° C.) and 10% RH intervals over a 0-90% range (60 minutes for each humidity level).

[3] = Two-week stability (HPLC purity); format: physicochemical
Procedure: HPLC analysis was carried out on an Agilent 1110/1200 series HPLC system. The column used was an Triart C18; 150×4.6 mm, 3.0 μm particle size (Ex Waters, PN: 186004644). The flow rate was 1.0 mL/min. Mobile phase A was Water:Trifluoroacetic acid (100:0.1%) and mobile phase B was Acetonitrile:Trifluoroacetic acid (100:0.1%). Detection was by UV at 302 nm. The injection volume was 5 μL, column temperature 40° C. and the following gradient was used: […]
Experimental: Maleate salt pattern B (30 mg) was placed into separate 15 mL type I glass vials. To these vials, a HDPE plastic cap was loosely attached to allow the ingress of moisture. The vials were then placed into ICH rated stability cabinets at 25° C./60% RH and 40° C./75% RH and in cold storage at 2-8° C. Following 2 weeks of storage these samples were removed from the stability cabinets and cold storage and the chemical purity assessed by HPLC (method 2). The relevant data was collected using a wavelength of 302 nm. The samples were prepared in MeCN:water (1:1).

[4] = Dynamic vapour sorption (DVS) analysis of maleate salt Pattern B; format: physicochemical
Procedure: A defined amount of the maleate salt Pattern B was placed in a tared mesh stainless steel basket under ambient conditions. A full experimental cycle consisted of […] (desorption, sorption repeat and desorption) at a constant temperature (25° C.) and 10% RH intervals over a 0-90% range (60 minutes for each humidity level).
Post cycle, the material was isolated at 0% RH and tested for crystallinity and then held at 90% RH for a minimum of 3 hours and re-tested for changes in crystallinity.

COc1cc(C2(F)CCN(C)CC2)ccc1-c1cc(Nc2cnc(C#N)cn2)n[nH]1 [compound of formula (1), 5-[[5-[4-(4-fluoro-1-methyl-4-piperidyl)-2-methoxy-phenyl]-1H-pyrazol-3-yl]amino]pyrazine-2-carbonitrile]
IC50 (MIA PaCa-2 cells; Homo sapiens, compound alone, MIA PaCa-2 cells, 72h, Cell Titer Glo, read-out: Chk1 IC50): 144 nM | 10 × LS (MIA PaCa-2 cells; approximate concentration giving a 10-fold reduction in the IC50 of gemcitabine alone, MIA PaCa-2, 72h): ~100 nM | 2 × LS (MIA PaCa-2 cells; approximate concentration giving a two-fold reduction in the IC50 of gemcitabine alone, MIA PaCa-2, 72h): ~3 nM | solubility FaSSGF (pH 1.37) ([1]; listed as free base): 2.93 mg/mL | solubility FaSSIF (pH 6.71) ([1]; listed as free base): 0.04 mg/mL | solubility FeSSIF (pH 5.14) ([1]; listed as free base): 0.6 mg/mL | GVS weight loss, initial desorption cycle ([2]; listed as free base): 2 wt % | GVS water gain, subsequent sorption cycle ([2]; listed as free base): 8% | Aqueous solubility mg/mL 24 h: 0.39 mg/mL

COc1cc(C2(F)CCN(C)CC2)ccc1-c1cc(Nc2cnc(C#N)cn2)n[nH]1 [maleate pattern B, 5-[[5-[4-(4-fluoro-1-methyl-4-piperidyl)-2-methoxy-phenyl]-1H-pyrazol-3-yl]amino]pyrazine-2-carbonitrile]
solubility FaSSGF (pH 1.37) [1]: 3.97 mg/mL | solubility FaSSIF (pH 6.71) [1]: 0.07 mg/mL | solubility FeSSIF (pH 5.14) [1]: 0.57 mg/mL | HPLC purity (HPLC method 2) ([3]; T = 0): 96.85 | HPLC purity (HPLC method 2) ([3]; T = 2 weeks, 2-8° C.): 96.85 | HPLC purity (HPLC method 2) ([3]; T = 2 weeks, 25° C./60% RH): 96.99 | HPLC purity (HPLC method 2) ([3]; T = 2 weeks, 40° C./75% RH): 96.98 | stability on storage ([3]; two weeks at 25° C./60% RH, 40° C./75% RH and 2-8° C., result in words): stable | crystalline form (XRPD) after GVS at extremes of humidity ([2]; 0% RH and 90% RH, result in words): 0% RH converts to pattern A, 90% RH no change | GVS weight loss, initial desorption cycle [2]: 2.5 wt % | GVS water gain, subsequent sorption cycle [2]: 4% | DVS moisture associated before the first desorption ([4]; 25° C., ambient start): ca. 2.8 wt % | DVS main increase in weight, first sorption ([4]; between 20 and 30% RH): ca. 2 wt % | crystalline form (XRPD) after DVS ([4]; isolated at 0% RH, then held at 90% RH, result in words): mixed phase at 0% RH and pattern B at 90% RH | Aqueous solubility mg/mL 24 h: 1.4 mg/mL
